Experiments:
Type in all cases: cell-based
[1] = tested on: NIH3T3 cells transformed by ras gene; assay: Detransformation of Cells Transformed by Ras Gene; details: Mus musculus, 24 hours, 2-fold serial dilutions, morphological observation, read-out: MTC: Minimum Concentration Required for the Detransformation of Cells Transformed by Ras Gene
Experimental: Medium used: 9.5 g of Dulbecco's Eagle MEM medium (Nissui Seiyaku) solution, 20 ml of 7% sodium hydrogen carbonate solution are added to distilled water and a fetal bovine serum (Flow Laboratories, Inc.) was added to a final concentration of 10 v/v % to obtain the medium. The medium (100 μl) was added to a 96-well plate (Sumitomo Bakelite) and NIH3T3 cells transformed by ras gene (5×10^3 cells/well) were seeded. The plate was incubated for 24 hr in a 5% carbon dioxide gas incubator. Then a sample to be tested was added in such a manner as to give 2-fold serial dilutions. After 24 hours, cells were observed morphologically to evaluate the detransformation activity.
Minimum Concentration Required for the Detransformation of Cells Transformed by Ras Gene

[2] = tested on: Cell Adhesion of Leukocytes onto Vascular Endothelial Cells of Human Umbilical Vein; assay: Assay of Inhibition Activity Against Cell Adhesion of Leukocytes (HL60 cells) onto Vascular Endothelial Cells of Human Umbilical Vein; details: 16-hour incubation with sample, then TNF 4 hr, HL-60 cells 30 min, Rose Bengal OD570
Experimental: Assay of Inhibition Activity Against Cell Adhesion of Leukocytes onto Vascular Endothelial Cells of Human Umbilical Vein
Human vascular endothelial cells used had been obtained from human umbilical vein by perfusion method using an enzyme solution of collagenase and have been maintained by subculturing in a culture solution, i.e., M199 medium (Gibco, Inc.) supplemented with 20% fetal bovine serum (FBS; Gibco, Inc.), 100 μg/ml endothelial mitogen (Funakoshi), 90 μg/ml heparin, 50 IU/ml Penicillin and 50 μg/ml Streptomycin. HL60 cells (human myelocytic leukemia cells) were purchased from Flow, Inc. and have been maintained by subculturing in RPMI1640 medium containing 10% FBS.
Four hours later, to each well was added 4 μl of a medium containing a sample at various concentrations. […] After 16-hour-incubation, 4 μl of 1×10^4 μ/ml TNF solution (tumor necrosis factor dissolved in a medium solution) was added and the incubation was continued for 4 hr. The resultant medium solution containing the sample was then filtered with suction and washed (×3) with DMEM solution containing 10% FBS, which was followed by the addition of 200 μl suspension of 3×10^5 HL-60 cells suspended in DMEM containing 10% FBS. The incubation was carried out at 37° C. for 30 min. […] After being allowed to stand for 5 min at room temperature, the supernatant was removed by aspiration, which was followed by washing (×2) with DMEM solution containing 10% FBS. A mixture of ethanol/phosphate-buffered physiological saline (1:1) was added and the resultant mixture was allowed to stand for 30 min to solubilize Rose Bengal pigment, which was followed by the determination of OD570 value on spectrophotometer.

[3] = tested on: Vascular Endothelial Cells of Human Umbilical Vein; assay: Assay of Inhibition Against the Cell Growth of Vascular Endothelial Cells of Human Umbilical Vein (MTT method); details: 72 h, 3-day incubation, OD570
Experimental: Assay of Inhibition Against the Cell Growth of Vascular Endothelial Cells of Human Umbilical Vein
Human vascular endothelial cells used had been obtained from human umbilical vein by perfusion method using an enzyme solution of collagenase and have been maintained by subculturing in a culture solution, i.e., M199 medium (Gibco, Inc.) supplemented with 20% fetal bovine serum (FBS; Gibco, Inc.), 100 μg/ml endothelial mitogen (Funakoshi), 90 μg/ml heparin, 50 IU/ml Penicillin and 50 μg/ml Streptomycin. […] On the next day, to each well was added 10 μl of a medium containing a sample at various concentrations. […] After 3-day-incubation, to the mixture was added 50 μl of 3 mg/ml MTT solution (a solution of 3-(4,5-dimethyl-2-thiazolyl)-2,5-diphenyl-2H-tetrazolium bromide dissolved in a culture solution) and the incubation was continued for 4 hr. Cells and MTT pigment were solubilized by the addition of 50 μl of 20% SDS solution (sodium dodecylsulfate dissolved in 0.02N HCl) and the incubation continued for 1 hr, which was followed by the determination of OD570 value on spectrophotometer.

## O=C(/C=C/C=C/c1ccccc1NS(=O)(=O)c1ccccc1)NO [Compound I-4, (2E)(4E)-5-(2-Phenylsulfonylaminophenyl)pentadienohydroxamic Acid]
[1]
  minimal effective concentration: 1.6 µM

## CN(c1ccccc1/C=C/C=C/C(=O)NO)S(=O)(=O)c1ccccc1 [Compound I-7, (2E)(4E) -5-[2-(N-Methylphenylsulfonylamino)phenyl]-2,4-pentadienohydroxamic Acid]
[1]
  minimal effective concentration: 0.2 µM
[2]
  IC50: 4.5 µM

## O=C(/C=C/C=C/C=C/c1ccccc1NS(=O)(=O)c1ccccc1)NO [Compound I-9, (2E)(4E)(6E)-7-(2-Phenylsulfonylaminophenyl)-heptatrienohydroxamic Acid]
[3]
  IC50: 25.6 µM
[1]
  minimal effective concentration: 3.2 µM
[2]
  IC50: 6.5 µM

## O=C(/C=C/C=C/c1cccc(NS(=O)(=O)c2ccccc2)c1)NO [Compound I-10, (2E)(4E)-5-(3-Phenylsulfonylaminophenyl)pentadienohydroxamic Acid]
[3]
  IC50: 20.4 µM
[1]
  minimal effective concentration: 0.3 µM
[2]
  IC50: 5.3 µM

## CN(c1cccc(/C=C/C=C/C(=O)NO)c1)S(=O)(=O)c1ccccc1 [Compound I-11]
[1]
  minimal effective concentration: 0.6 µM
[2]
  IC50: 6.4 µM

## O=C(/C=C/C=C/c1ccc(NS(=O)(=O)c2ccccc2)cc1)NO [Compound I-12, (2E)(4E)-5-(4-Phenylsulfonylaminophenyl)pentadienohydroxamic Acid]
[1]
  minimal effective concentration: 3.1 µM

## O=C(/C=C/C=C/c1cc2ccccc2n1S(=O)(=O)c1ccccc1)NO [Compound I-17, (2E)(4E)-5-(1-phenylsulfonylindol-2-yl)pentadienohydroxamic Acid]
[1]
  minimal effective concentration: 3.2 µM
[2]
  IC50: 8.3 µM

## O=C(/C=C/C#Cc1cccc(NS(=O)(=O)c2ccccc2)c1)NO [Compound I-18, (2E)-5-[3-(Phenylsulfonylamino)phenyl]pent-2-en-4-ynohydroxamic Acid]
[3]
  IC50: 13.8 µM
[1]
  minimal effective concentration: 0.039 µM
[2]
  IC50: 2.5 µM

## CN(c1cccc(C#C/C=C/C(=O)NO)c1)S(=O)(=O)c1ccccc1 [Compound I-19, (2E)-5-[3-(N-Methylphenylsulfonylamino)phenyl]pent-2-en-4-ynohydroxamic Acid]
[3]
  IC50: 26.7 µM
[1]
  minimal effective concentration: 0.3 µM
[2]
  IC50: 6.3 µM

## O=C(/C=C/C=C/c1cc2ccccc2cc1NS(=O)(=O)c1ccccc1)NO [Compound I-20, (2E)(4E)-5-(3'-Phenylsulfonylamino-2'-naphthyl)pentadienohydroxamic Acid]
[1]
  minimal effective concentration: 0.6 µM

— US5534654A, “Aromatic-sulfonamide-type hydroxamic acid derivative” (Shionogi & Co., Ltd., priority 1991, dated 1996)
